Where two headings read alike, the source gives them in different places.
What was measured:
Type in all cases: cell-based
[1] = target: T1, hGAT2 (Homo sapiens, UniProt Q9NSD5); assay: [3H]GABA uptake inhibition at hGAT2 stably expressed in CHO Flp-In cells; settings: 30 nM [3H]GABA, 3 min, CHO Flp-In cells stably expressing hGAT2; read-out: IC50 hGAT2
T1 construct: expressed in transfected cells
T1 sequence (Q9NSD5 1-602): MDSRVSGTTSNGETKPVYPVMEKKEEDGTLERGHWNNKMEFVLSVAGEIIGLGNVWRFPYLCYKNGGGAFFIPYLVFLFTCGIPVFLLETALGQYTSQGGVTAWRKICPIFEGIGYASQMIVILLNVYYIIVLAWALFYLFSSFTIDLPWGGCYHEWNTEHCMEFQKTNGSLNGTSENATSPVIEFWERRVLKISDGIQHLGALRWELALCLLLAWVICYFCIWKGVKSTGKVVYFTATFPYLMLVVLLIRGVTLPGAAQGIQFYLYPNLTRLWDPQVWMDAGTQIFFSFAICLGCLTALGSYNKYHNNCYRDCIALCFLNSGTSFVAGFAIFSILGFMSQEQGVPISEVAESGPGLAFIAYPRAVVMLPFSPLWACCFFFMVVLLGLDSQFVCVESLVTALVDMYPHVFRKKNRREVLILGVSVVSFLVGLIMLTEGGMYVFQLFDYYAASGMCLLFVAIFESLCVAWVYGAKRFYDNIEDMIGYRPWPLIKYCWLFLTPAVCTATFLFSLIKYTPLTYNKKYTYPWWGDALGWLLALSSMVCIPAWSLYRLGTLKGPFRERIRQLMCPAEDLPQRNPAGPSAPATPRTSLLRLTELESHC
Protocol: CHO Flp-In and tsA201 cells were cultured at 37 °C in a humidified atmosphere of […] and 5% CO2. As previously described[38],[63], CHO Flp-In cells stably expressing the hGATs were cultured in Ham’s F12 Nutrient Mix supplemented with 10% FBS, 1% P/S and plasmocin (5 µg/mL) under the selection pressure of hygromycin B (200 µg/mL). DMEM with GlutaMAX-I supplemented with 10% FBS and 1% P/S was used as growth medium for the tsA201 cells, which were transfected with DNA constructs using PolyFect according to the manufacturer’s specifications (Qiagen, West Sussex, UK), but with half of the recommended reagent volumes.
Uptake assays were performed in PDL-coated white 96-well polystyrene cell culture microplates (PerkinElmer, Boston, MA, USA) as previously described[38],[63]. […] Assay buffer was HBSS supplemented with 20 mM HEPES, 1 mM CaCl2 and 1 mM MgCl2, pH 7.4. […] After termination, scintillation liquid (MicroScint-20, PerkinElmer) was added and the radioactivity measured in a TopCount NXT Microplate Scintillation Counter (PerkinElmer).
Data analysis and statistical evaluation were performed in GraphPad Prism 7.02 (GraphPad Software, San Diego, CA, USA). Concentration-uptake inhibition curves, generated from the radioligand-based uptake assays, were fitted by non-linear regression, using the equation for sigmoidal concentration–response with variable slope: Y = Bottom + (Top–Bottom)/(1 + 10^((logIC50 − X) × HillSlope)), where Y is the response, X is the logarithm of the concentration, Top and Bottom are the plateaus in same units as Y, logIC50 is the concentration giving a response halfway between Bottom and Top, and the HillSlope is the steepness of the curve. For the substrate concentration–response curves generated from the FMP assay, the same equation was used but with logEC50 instead for logIC50. Unless otherwise stated, data are presented as means ± S.E.M. of at least three independent pooled experiments performed in triplicates.

[2] = target: T2, hGAT3 wt (Homo sapiens, UniProt P48066); assay: [3H]GABA uptake inhibition at wt hGAT3 transiently expressed in tsA201 cells; settings: 30 nM [3H]GABA, transient expression
T2 construct: expressed in transfected cells; host or cells: tsA201 cells, transient (PolyFect), pcDNA5/FRT vector
T2 sequence (P48066 1-632): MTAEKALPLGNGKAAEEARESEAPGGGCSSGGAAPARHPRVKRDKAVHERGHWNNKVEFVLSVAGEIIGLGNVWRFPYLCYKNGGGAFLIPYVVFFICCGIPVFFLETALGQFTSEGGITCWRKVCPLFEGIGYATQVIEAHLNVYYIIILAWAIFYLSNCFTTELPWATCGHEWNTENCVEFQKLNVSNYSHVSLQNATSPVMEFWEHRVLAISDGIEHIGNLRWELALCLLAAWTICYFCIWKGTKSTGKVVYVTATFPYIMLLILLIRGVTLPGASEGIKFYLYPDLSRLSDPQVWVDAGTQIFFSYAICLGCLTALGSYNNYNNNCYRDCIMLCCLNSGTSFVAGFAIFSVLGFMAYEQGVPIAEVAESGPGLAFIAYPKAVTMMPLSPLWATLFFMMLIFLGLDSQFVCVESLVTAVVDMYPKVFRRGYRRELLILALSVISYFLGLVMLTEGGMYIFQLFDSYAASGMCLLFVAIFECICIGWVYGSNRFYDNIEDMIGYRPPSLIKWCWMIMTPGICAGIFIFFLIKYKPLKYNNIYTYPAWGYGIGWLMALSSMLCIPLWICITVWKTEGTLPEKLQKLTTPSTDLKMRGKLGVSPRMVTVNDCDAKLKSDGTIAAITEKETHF

[3] = target: T3, hBGT1 wt (Homo sapiens, UniProt P48065); assay: [3H]GABA uptake inhibition at wt hBGT1 transiently expressed in tsA201 cells; settings: 30 nM [3H]GABA, tsA201 cells transiently expressing wt hBGT1
T3 construct: expressed in transfected cells; host or cells: tsA201 cells, transient (PolyFect), pcDNA5/FRT vector
T3 sequence (P48065 1-614): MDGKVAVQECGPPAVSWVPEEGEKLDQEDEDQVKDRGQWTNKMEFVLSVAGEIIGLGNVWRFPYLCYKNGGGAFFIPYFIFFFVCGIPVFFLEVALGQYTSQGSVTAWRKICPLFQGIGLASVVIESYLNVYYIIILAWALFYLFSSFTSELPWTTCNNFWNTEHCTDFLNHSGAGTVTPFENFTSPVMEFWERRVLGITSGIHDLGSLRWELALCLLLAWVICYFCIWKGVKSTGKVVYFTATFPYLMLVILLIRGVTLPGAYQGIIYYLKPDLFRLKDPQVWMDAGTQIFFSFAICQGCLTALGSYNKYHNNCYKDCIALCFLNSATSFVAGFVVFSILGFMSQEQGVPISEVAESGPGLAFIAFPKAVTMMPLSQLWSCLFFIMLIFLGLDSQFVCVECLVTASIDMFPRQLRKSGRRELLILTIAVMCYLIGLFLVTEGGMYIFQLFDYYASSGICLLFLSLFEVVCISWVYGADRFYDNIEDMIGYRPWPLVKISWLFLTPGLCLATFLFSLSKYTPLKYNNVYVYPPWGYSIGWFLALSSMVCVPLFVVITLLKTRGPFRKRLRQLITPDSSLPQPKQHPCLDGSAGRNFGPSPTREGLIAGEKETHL

[4] = read-out: pIC50 ± S.E.M. BGT1 wt (converted)
[5] = read-out: pIC50 ± S.E.M. GAT3 wt (converted)

For C[C@@H]1N=C(N)NC[C@@H]1C(=O)O (single isomer, unassigned) [l-15a], the IC50 [1] was > 1000 µM, the IC50 ([2]; read-out: IC50 GAT3 wt) was > 1000 µM and the IC50 [3, 4] was 20.9 µM.
Compound NC1=NCC(C(=O)O)CN1 (centres unmarked) [ATPCA, 2-amino-1,4,5,6-tetrahydropyrimidine-5-carboxylic acid, reference compound] has an IC50 ([2]; read-out: IC50 GAT3 wt) of 851 µM, an IC50 [2, 5] of 589 µM and an IC50 ([3]; read-out: IC50 BGT1 wt) of 11 µM. The IC50 [3, 4] was 10.5 µM.
With NC1=NCC(C(=O)O)CC1 (centres unmarked) [compound 2, 6-amino-2,3,4,5-tetrahydropyridine-3-carboxylic acid, reference compound] the IC50 [1] was > 1000 µM, the IC50 ([2]; read-out: IC50 GAT3 wt) was > 1000 µM and the IC50 ([3]; read-out: IC50 BGT1 wt) was 52 µM. It also gave an IC50 [3, 4] of 51.3 µM.
With CCN1CC(C(=O)O)CN=C1N.Cl (centres unmarked) [compound 3] the IC50 [1] was > 1000 µM, the IC50 ([2]; read-out: IC50 GAT3 wt) was > 1000 µM and the IC50 ([3]; read-out: IC50 BGT1 wt) was 406 µM. It also gave an IC50 [3, 4] of 398 µM.
Cl.NC1=NCC(C(=O)O)CN1Cc1ccccc1 (centres unmarked) [compound 4] was tested, and the IC50 [1] was 105 µM, the IC50 ([2]; read-out: IC50 GAT3 wt) was 122 µM and the IC50 [2, 5] was 115 µM. The IC50 ([3]; read-out: IC50 BGT1 wt) was 354 µM and the IC50 [3, 4] was 324 µM.
With NC1=NC=C(C(=O)O)CN1.O=C(O)C(F)(F)F [compound 11] the IC50 [1] was > 1000 µM, the IC50 ([2]; read-out: IC50 GAT3 wt) was > 1000 µM and the IC50 ([3]; read-out: IC50 BGT1 wt) was 220 µM.

— paper PMC7400577 (Scientific Reports, 2020)
